No end group written: not given here.
Legend:
[1] = tested on: immunoaffinity purified RA auto-antibodies; test: Immuno-blotting of cellulose-bound spot peptides with immunoaffinity purified RA auto-antibodies (Example 5); type: binding, human; settings: IgM RF eluted from IgG Sepharose, 1 μg/mL
Text: Analysis of IgM auto-antibodies opens up the possibility of removing endogenous IgG from the serum samples prior to analysis for auto-antibodies.
1. IgG is coupled to CNBr activated Sepharose using the manufacturers instructions (Pharmacia, Upsala, Sweden).
2. The IgG Sepharose is packed in a suitable column (i.e. a disposable DG10 column, BioRad laboratories, Richmond, Calif.). The column is washed with at least 10 column volumes PBS and with 10 column volumes 0.1 M sodium acetate, 0.15 M sodium chloride pH 3.5 and finally equilibrated in PBS.
3. Serum from RA patients is diluted 10 times in PBS and loaded on the column. The column is washed with PBS until the absorbency (OD 280 nm) reaches base-line.
4. Bound RF's are eluted with 0.1 M sodium acetate, 0.15 M sodium chloride pH 3.5.
5. IgM is separated from IgG and IgA by gel-filtration on a Sephadex G-200 column in 0.1 M sodium acetate, 0.15 M sodium chloride pH 3.5.
6. Eluted IgM is diluted in PBS-BT to 1 μg/mL and assayed as described below.
Seven amino-acid peptides extending over the Asn-315 residue were synthesised by spot synthesis using Whatman 540 paper (Maidstone, U.K.), using the previously described procedures (Frank, 1992, Kramer et al 1994). The peptides were automatically prepared using a spot synthesis method (Abimed, Langenfeld, F R G). The following peptides were synthesised, covalently attached via the carboxy-terminus: […]

[2] = tested on: human immunoglobulin in sera from patients with multiple sclerosis; test: Homogeneous RIA with 125I BSA-BS3 MBP octapeptide tracer in MS and control sera (Example 6); type: binding; settings: free peptide 10 μg/ml, 25 μl; % inhibition higher in MS sera than control sera (p=0.008); FIG. 9C
Text: For this purpose the MBP derived octapeptide Pro-Ser-Glu-γ-Gly-Lys-Gly-Arg-Gly (γL) was manufactured synthetically using standard FMOC chemistry. The peptide was conjugated to bovine serum albumin […] by Bis-[sulfosuccinimidyl]suberate(BS^3) according to the manufacturers instructions (Pierce) and iodinated with ^125I using the chloramine T protocol as described in Example 4.
Serum from 9 MS-patients and 8 healthy persons are reacted overnight with ^125I—BSA-S^3-Pro-Ser-Glu-y-Gly-Lys-Gly-Arg-Gly followed by precipitation of immune complexes with protein A Sepharose. Serum samples are diluted 1:200 in IMP buffer. The ^125I BSA-BS^3-Pro-Ser-Glu-y-Gly-Lys-Gly-Arg-Gly tracer is diluted in IMP buffer (to an activity of 100000 CPM/25 μl). Seventy-five Al of diluted serum sample is mixed with 25 μl tracer and 25 μl of either IMP buffer or free (unconjugated/unlabelled) Pro-Ser-Glu-y-Gly-Lys-Gly-Arg-Gly peptide (in a concentration of 10 μg/ml in IMP buffer) is added to this mixture. This mixture incubated overnight at 4° C. Protein A Sepharose (PAS) 20 μl/sample vial is weighed out and washed 3 times with 10 ml IMP washing buffer, and transferred to eppendorf 1.5 ml tubes using a repeater pipette. The PAS is sedimented by centrifugation at 2000 RPM 2 min., and the supernatant is aspirated using a suction device (or a pipette). […]

[3] = tested on: auto-antibodies in RA sera; test: ELISA of serum auto-antibodies on MTP coated with Thy-GA peptide conjugate (Example 2); type: binding, human; settings: RA RF+ sera vs RA RF- sera vs control sera; serum diluted one-hundred fold; conjugate coated at 10 μg/ml; FIG. 5
Text: It was investigated whether auto-antibodies would recognise an Asn-315 derived septa-peptide and whether such auto-antibodies are a characteristic feature of rheumatoid arthritis. In order to carry out such investigations the IgG Fc Asn-315 derived (βL) septa-peptide Trp-Leu-Asp-β-Gly-Lys-Glu-Tyr, was manufactured synthetically. The peptide used was a preparation of linear (αL form) Trp-Leu-Asn-Gly-Lys-Glu-Tyr peptide heated to promote isomerisation by the following procedure. The peptide was dissolved in the buffer and heated for 4 hours at 90° C. to promote isomerisation and/or optical inversion. The resulting mix of isomerised (βL) optically inverted (αD and βD) and linear (αL) peptides were analysed by RP-HPLC using a 15-35% acetonitrile gradient in 0.1% TFA over 10 minutes with a flow rate of 1 ml/min, and the isomerisation status of the resulting peaks were studied by amino-acid analysis as described above. This peptide was dissolved at 5 mg/ml in 0.2 M Na-Phosphate pH 9.2. […]
0.5 ml thyroglobulin (30 mg/ml) in 0.1 M Na-phosphate buffer pH 8.0, was added drop-wise (over 2 minutes) and under constant mixing to 0.5 mL of the following solution: 10% GA, 40% H2O, 50% 0.2 M Na-Phosphate pH 8.0. […] The final volume was adjusted to 1500 μL and the protein concentration was determined by a BioRad protein assay performed according to the manufacturers instructions. […]

RA autoantibodies = test: Competition ELISA: sera pre-incubated with peptides, then Thy-GA-Trp-Leu-*Asx-Gly-Lys-Glu-Tyr coated plates (Example 3); type: binding, human; settings: 6 RA sera; 50 μl competitor at 50 μg/ml; 17 hours at 4° C.; FIG. 6
Experimental: The binding of RA autoantibodies to the Thy-GA-Trp-Leu-*Asx-Gly-Lys-Glu-Tyr coated plates as described above could be competed out by pre-incubating the sera with Trp-Leu-*Asx-Gly-Lys-Glu-Tyr peptide in solution. The experiment was carried out as follows. Serum samples were diluted one-hundred fold in 10 mM Na-phosphate, 140 mM NaCl, 0.1% tween-20, 1% BSA pH 7.4 (assay buffer). Two-hundred μl was added to 1.5 ml polypropylene tubes followed by addition of 50 μl of the following reagents dissolved in assay buffer at a concentration of 50 μg/ml:
1. Trp-Leu-Asp-β-Gly-Lys-Glu-Tyr. (βL form of the epitope)
2. Trp-Leu-Asn-Gly-Lys-Glu-Tyr (αL form of the epitope)
3. Thy-GA-Trp-Leu-*Asx-Gly-Lys-Glu-Tyr conjugate (prepared as described in example 2).
The tubes were placed at 4° C. for 17 hours, and one-hundred μl of the mixture was added into MTP coated with Thy-GA-Trp-Leu-*Asx-Gly-Lys-Glu-Tyr conjugate. The assay was performed as described above under example 2.

[4] = tested on: auto-antibodies reactive with isomerised IgG Fc Asn-315 derived peptides; test: Homogeneous RIA with 125I Thy-GA-Trp-Leu-*Asx-Gly-Lys-Glu-Tyr tracer, competition with peptides (Example 4); type: binding, human; settings: 25 μl of 100, 1000 or 10,000 ng/ml competitor; peptide significant in the highest concentration; P=0.01 by Student's T-Test; FIG. 8
Experimental: A homogeneous RIA assay was developed for measurement of auto-antibodies with reactivity towards the isomerised form of the epitope Trp-Leu-Asn-Gly-Lys-Glu-Tyr derived from the IgG CH^2 region. The assay was performed by incubating serum samples with ^125I Thy-GA-Trp-Leu-*Asx-Gly-Lys-Glu-Tyr over-night followed by precipitation of immune-complexes with protein A Sepharose.
Serum samples are diluted 1:200 in IMP buffer (IMP-buffer: 10 mM Na-Phosphate, pH 7.4, 140 mM NaCl, 5 mM EDTA, 0.5% Triton X-100, 0.1% BSA, 10 μg/ml soy-bean trypsin inhibitor). A Thy-GA-Trp-Leu-*Asx-Gly-Lys-Glu-Tyr conjugate is prepared as described in example 2 and iodinated with ^125I using the chloramine T protocol: 100 μg of the conjugate is diluted in 0.25 M Na2HPO4 to a total volume of 140 μl. 1.5 mCi Na^125I is added followed by 10 μL Chloramin-T (1 mg/ml, prepared freshly). The solution is vortexed for 30 seconds and 150 μL methionine (1 mg/ml) is added and immediately vortexed for 120 sec. The tracer is purified on size exclusion column (type: BIOSEP SEC S-2000, size: 300×7.80 mm) equilibrated with PBS containing 1% BSA Flow rate 1.0 ml/min. 500 μl fractions are collected and analysed in a scintillation counter (γ-counter). The fractions containing the tracer are pooled and used in the homogeneous RIA assay format. […]

Substance | reactivity of purified RA auto-antibodies towards cellulose-bound peptide [1] | competition of the binding of RA autoantibodies to Thy-GA-Trp-Leu-*Asx-Gly-Lys-Glu-Tyr coated plates (RA autoantibodies) | also measured
His-Gln-Asp-Trp-Leu-Asp-β-Gly [peptide IV] | strong reactivity | – | –
Pro-Ser-Glu-γ-Gly-Lys-Gly-Arg-Gly | – | – | inhibition of binding of the 125I conjugate to human immunoglobulin by free peptide [2]: specifically inhibited
Trp-Leu-*Asx-Gly-Lys-Glu-Tyr (WLNGKEY; not fully specified (residue 3); printed as Trp-Leu-*Asx-Gly-Lys-Glu-Tyr; also: position 3 Asx: mixture of αD Asn/Asp, βD and βL Asp after heat isomerisation) [linear Trp-Leu-Asn-Gly-Lys-Glu-Tyr heated 4 hours at 90° C; in b143 coated as Thy-GA conjugate] | – | competed out | auto-antibody reactivity (ELISA signal, absorbency at 450 nm) compared between patient groups [3]: elevated auto-antibody reactivity
Trp-Leu-Asp-β-Gly-Lys-Glu-Tyr | – | able to compete out the binding | reactivity in RIA competition (percent inhibition in the presence of competing peptide), group basis [4]: significant reactivity
Trp-Leu-Asp-β-Gly-lys-Glu-Tyr [VII] | strong reactivity | – | –
